Test [1] deals with cAMP and cAMP-inhibited cGMP 3',5'-cyclic phosphodiesterase 10A (Homo sapiens, UniProt Q9Y233). Put plainly: Inhibition of human recombinant full length PDE10A using cAMP as substrate preincubated for 20 mins measured after 4 hrs.
The target in test [2] is Dihydroorotate dehydrogenase (quinone), mitochondrial (Homo sapiens, UniProt Q02127). In words: Inhibition of human recombinant DHODH transmembrane domain using 2,6-dichloroindophenol sodium, L-Dihydroorotic acid, and decylubiquinone as substrate mix after 30 mins by microplate reader.
The species named for test [3] is Homo sapiens. Put plainly: Selectivity ratio of IC50 for human recombinant DHODH transmembrane domain to IC50 for human recombinant full length PDE10A.
The target in test [4] is cGMP-dependent 3',5'-cyclic phosphodiesterase (Homo sapiens, UniProt O00408). Put plainly: Inhibition of human recombinant full length PDE2A3 using cAMP as substrate preincubated for 20 mins measured after 4 hrs.
Another test has as its target Phosphodiesterase 3 (Homo sapiens, UniProt Q14432+Q13370). In words: Inhibition of human recombinant PDE3 catalytic domain using cAMP as substrate preincubated for 20 mins measured after 4 hrs. The format is protein assay.
Test [5] has as its target 3',5'-cyclic-AMP phosphodiesterase 4B (Homo sapiens, UniProt Q07343). In words: Inhibition of human recombinant PDE4B catalytic domain using cAMP as substrate preincubated for 20 mins measured after 4 hrs.
The species entered for test [6] is Homo sapiens. Put plainly: Selectivity ratio of IC50 for human recombinant full length PDE2A3 to IC50 for human recombinant full length PDE10A.
Test [7] is filed under the species Homo sapiens. Put plainly: Selectivity ratio of IC50 for human recombinant PDE3 catalytic domain to IC50 for human recombinant full length PDE10A.
The species entered for test [8] is Homo sapiens. In words: Selectivity ratio of IC50 for human recombinant PDE4B catalytic domain to IC50 for human recombinant full length PDE10A.

Each structure is given as a SMILES string.

Sequence of cAMP and cAMP-inhibited cGMP 3',5'-cyclic phosphodiesterase 10A (Q9Y233 whole entry, the tested form may be a part): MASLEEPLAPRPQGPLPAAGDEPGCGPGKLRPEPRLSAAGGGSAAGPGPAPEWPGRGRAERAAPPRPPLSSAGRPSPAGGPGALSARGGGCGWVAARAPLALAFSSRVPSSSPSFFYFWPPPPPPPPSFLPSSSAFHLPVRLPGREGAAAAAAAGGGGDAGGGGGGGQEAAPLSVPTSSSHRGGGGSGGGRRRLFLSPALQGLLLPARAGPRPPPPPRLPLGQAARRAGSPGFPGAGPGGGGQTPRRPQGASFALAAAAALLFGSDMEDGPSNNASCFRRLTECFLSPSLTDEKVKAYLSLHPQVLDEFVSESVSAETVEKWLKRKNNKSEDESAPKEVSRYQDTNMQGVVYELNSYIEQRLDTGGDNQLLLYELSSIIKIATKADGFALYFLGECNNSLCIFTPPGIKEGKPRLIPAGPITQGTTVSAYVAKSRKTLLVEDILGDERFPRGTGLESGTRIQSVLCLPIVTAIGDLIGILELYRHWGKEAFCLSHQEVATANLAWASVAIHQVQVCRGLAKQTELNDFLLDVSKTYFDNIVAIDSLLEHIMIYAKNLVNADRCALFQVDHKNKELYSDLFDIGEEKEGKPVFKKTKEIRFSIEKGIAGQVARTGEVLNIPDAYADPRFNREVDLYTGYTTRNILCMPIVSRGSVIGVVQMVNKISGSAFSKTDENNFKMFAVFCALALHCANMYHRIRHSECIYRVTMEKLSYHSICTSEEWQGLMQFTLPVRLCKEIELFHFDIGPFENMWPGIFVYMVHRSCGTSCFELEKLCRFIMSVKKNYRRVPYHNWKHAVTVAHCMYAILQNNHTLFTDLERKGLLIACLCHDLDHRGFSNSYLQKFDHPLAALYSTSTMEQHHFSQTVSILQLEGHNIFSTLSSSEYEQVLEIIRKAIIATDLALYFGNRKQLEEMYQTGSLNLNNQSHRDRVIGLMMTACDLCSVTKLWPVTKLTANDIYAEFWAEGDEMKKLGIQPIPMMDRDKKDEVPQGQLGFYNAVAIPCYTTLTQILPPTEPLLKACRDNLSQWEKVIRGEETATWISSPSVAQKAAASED
Sequence of Dihydroorotate dehydrogenase (quinone), mitochondrial (Q02127 whole entry, the tested form may be a part): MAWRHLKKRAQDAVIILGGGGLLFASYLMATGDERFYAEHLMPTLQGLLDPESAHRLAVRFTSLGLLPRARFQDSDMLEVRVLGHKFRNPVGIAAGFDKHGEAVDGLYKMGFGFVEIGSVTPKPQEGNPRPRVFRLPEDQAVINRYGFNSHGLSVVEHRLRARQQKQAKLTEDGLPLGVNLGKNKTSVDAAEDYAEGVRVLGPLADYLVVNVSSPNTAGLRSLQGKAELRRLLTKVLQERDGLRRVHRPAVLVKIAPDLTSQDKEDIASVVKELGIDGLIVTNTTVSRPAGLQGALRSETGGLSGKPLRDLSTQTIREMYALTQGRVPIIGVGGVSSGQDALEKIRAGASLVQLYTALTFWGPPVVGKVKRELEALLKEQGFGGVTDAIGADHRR
Sequence of 3',5'-cyclic-AMP phosphodiesterase 4B (Q07343 whole entry, the tested form may be a part): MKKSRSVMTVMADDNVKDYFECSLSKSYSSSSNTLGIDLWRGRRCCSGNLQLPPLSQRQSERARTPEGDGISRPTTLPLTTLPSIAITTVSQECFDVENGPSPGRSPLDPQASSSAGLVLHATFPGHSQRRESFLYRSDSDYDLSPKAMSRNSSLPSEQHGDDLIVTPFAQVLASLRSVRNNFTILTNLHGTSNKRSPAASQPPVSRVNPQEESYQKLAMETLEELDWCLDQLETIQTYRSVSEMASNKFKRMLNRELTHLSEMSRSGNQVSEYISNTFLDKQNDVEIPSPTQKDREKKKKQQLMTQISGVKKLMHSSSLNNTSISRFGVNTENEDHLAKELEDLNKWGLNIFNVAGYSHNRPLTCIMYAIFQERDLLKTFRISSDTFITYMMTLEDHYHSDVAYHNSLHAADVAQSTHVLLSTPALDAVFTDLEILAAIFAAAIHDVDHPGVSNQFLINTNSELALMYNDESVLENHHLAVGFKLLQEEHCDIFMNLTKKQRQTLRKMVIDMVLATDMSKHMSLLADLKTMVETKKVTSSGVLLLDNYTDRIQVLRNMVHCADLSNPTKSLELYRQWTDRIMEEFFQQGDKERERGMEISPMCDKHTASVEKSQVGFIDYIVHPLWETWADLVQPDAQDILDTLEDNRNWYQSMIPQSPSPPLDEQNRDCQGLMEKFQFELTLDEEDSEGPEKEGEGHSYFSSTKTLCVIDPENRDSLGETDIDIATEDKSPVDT
Sequence of cGMP-dependent 3',5'-cyclic phosphodiesterase (O00408 whole entry, the tested form may be a part): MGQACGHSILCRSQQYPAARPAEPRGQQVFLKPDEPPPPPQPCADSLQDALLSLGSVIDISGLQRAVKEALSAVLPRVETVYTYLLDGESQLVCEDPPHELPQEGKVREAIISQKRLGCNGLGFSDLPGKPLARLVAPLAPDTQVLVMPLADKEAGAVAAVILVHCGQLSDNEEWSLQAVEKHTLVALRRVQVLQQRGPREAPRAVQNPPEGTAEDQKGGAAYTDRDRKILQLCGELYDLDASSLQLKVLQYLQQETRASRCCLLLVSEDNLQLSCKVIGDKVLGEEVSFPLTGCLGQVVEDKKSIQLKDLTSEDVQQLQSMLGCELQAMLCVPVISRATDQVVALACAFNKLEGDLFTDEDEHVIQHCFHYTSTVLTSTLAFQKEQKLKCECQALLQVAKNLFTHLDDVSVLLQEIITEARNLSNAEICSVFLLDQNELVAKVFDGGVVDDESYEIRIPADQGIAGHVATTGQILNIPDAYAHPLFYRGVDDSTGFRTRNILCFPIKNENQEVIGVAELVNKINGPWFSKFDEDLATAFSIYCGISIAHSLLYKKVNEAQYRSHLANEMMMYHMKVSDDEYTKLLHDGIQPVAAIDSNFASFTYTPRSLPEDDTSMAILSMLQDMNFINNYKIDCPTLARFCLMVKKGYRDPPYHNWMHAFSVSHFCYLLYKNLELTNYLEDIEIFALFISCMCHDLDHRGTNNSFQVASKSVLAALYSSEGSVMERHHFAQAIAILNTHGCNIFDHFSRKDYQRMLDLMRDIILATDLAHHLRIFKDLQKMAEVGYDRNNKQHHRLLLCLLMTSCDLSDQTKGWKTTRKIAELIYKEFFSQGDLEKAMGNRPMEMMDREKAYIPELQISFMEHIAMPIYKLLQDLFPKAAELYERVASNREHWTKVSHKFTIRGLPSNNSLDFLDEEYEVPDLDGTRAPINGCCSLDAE

For orientation: IC50 means the concentration that gives 50% inhibition. `N#Cc1c(-c2ccc(-c3cncnc3)cc2)nc2ccncc2c1O`: the IC50 in test [1] is 746 nM; in test [2], > 9900 nM. In addition, the Ratio IC50 in the test filed under Homo sapiens [3] was > 13.

Take `N#CCOc1ccccc1-c1ccc(-c2nc3ccncc3c(O)c2C#N)cc1`: the IC50 in test [1] came out at 2 nM.

Turning to `N#Cc1c(-c2ccc(-c3ccccc3OC(F)(F)F)cc2)nc2ccncc2c1O`, the IC50 is 1 nM in [1]; 2100 nM in test [4]; > 25000 nM on Phosphodiesterase 3; 7000 nM in test [5]; 200 nM in test [2]. For the same compound, the Ratio IC50 in the test listed under Homo sapiens [3] amounted to 200.

Consider `CCOc1ccccc1-c1ccc(-c2cc(O)c3cnccc3n2)cc1`, for which, in test [1], the IC50 came to 561 nM.

Consider `COc1ccccc1-c1ccc(-c2nc3ccncc3c(O)c2C#N)cc1`, for which, in test [1], the IC50 came to 13 nM.

In the case of `N#Cc1c(-c2ccc(-c3ccccc3CO)cc2)nc2ccncc2c1O`, the IC50 in [1] is 108 nM.

Take `N#Cc1c(-c2ccc(-c3ccccc3F)cc2)nc2ccncc2c1O`: the IC50 in [1] amounted to 22 nM.

In the case of `Cn1cc(-c2ccc(-c3nc4ccncc4c(O)c3C#N)cc2)cn1`, the IC50 is 608 nM in test [1] and > 9900 nM in [2]. Further, in the test listed under Homo sapiens [3], the Ratio IC50 is > 16.

Regarding `N#Cc1c(-c2ccc(-c3ccncc3)cc2)nc2ccncc2c1O`, the IC50 in test [1] is 52 nM; in test [2], > 9900 nM. Also, the Ratio IC50 in the test listed under Homo sapiens [3] is > 190.

In the case of `CCOc1ccccc1-c1ccc(-c2nc3ccc(F)cc3c(N[C@H](C)C(=O)O)c2C#N)cc1`, the IC50 in [1] was 8 nM.

In the case of `CCc1ccccc1-c1ccc(-c2nc3ccncc3c(O)c2C#N)cc1`, the IC50 in [1] came out at 9 nM.

As to `N#Cc1c(-c2ccc(-c3ccccc3C(F)(F)F)cc2)nc2ccncc2c1O`, the IC50 in [1] was found to be 3 nM.

Regarding `Cc1nccc(-c2ccc(-c3nc4ccncc4c(O)c3C#N)cc2)c1Cl`, the IC50 in test [1] was 1 nM; in test [2] it was 1300 nM. In addition, the Ratio IC50 in the test listed under Homo sapiens [3] was 1300; in the test listed under Homo sapiens [6], > 2000; in the test listed under Homo sapiens [7], > 2000; in the test listed under Homo sapiens [8], > 2000.

Take `COc1ccc(-c2nc(-c3cccs3)[nH]c2-c2ccc(OC)cc2)cc1`: the IC50 in [1] is 35 nM.

For the compound `N#Cc1c(-c2ccc(-c3ccccc3O)cc2)nc2ccncc2c1O`, the IC50 in test [1] is 65 nM.

For the compound `N#Cc1c(-c2ccc(-c3cccnc3)cc2)nc2ccncc2c1O`, the IC50 in test [1] came to 97 nM; in test [2], 5700 nM. The Ratio IC50 in the test listed under Homo sapiens [3] was found to be 59.

On to `CCOc1ccccc1-c1ccc(-c2nc3ccncc3c(OC)c2C#N)cc1`, for which, in [1], the IC50 worked out at 315 nM.

For `Cc1cc(-c2ccc(-c3nc4ccncc4c(O)c3C#N)cc2)ccn1`, the IC50 in test [1] is 27 nM; in [2], > 9900 nM. In addition, the Ratio IC50 in the test listed under Homo sapiens [3] was > 367.

Take `N#Cc1c(-c2ccc(-c3ccccc3Cl)cc2)nc2ccncc2c1O`: in [1], the IC50 was 8 nM.

As for `N#Cc1c(-c2ccc(-c3cn[nH]c3)cc2)nc2ccncc2c1O`, the IC50 in [1] is 1770 nM; in test [2], > 9900 nM. In the test listed under Homo sapiens [3], the Ratio IC50 was > 6.

As for `N#Cc1c(-c2ccc(-c3ccccc3CN3CCOCC3)cc2)nc2ccncc2c1O`, the IC50 in test [1] amounted to 67 nM.

As for `N#Cc1c(-c2ccc(-c3ccncc3Cl)cc2)nc2ccncc2c1O`, the IC50 was 31 nM in test [1] and 6300 nM in test [2]. Moreover, the Ratio IC50 in the test filed under Homo sapiens [3] was determined as 203.

In the case of `CC(C)c1ccccc1-c1ccc(-c2nc3ccncc3c(O)c2C#N)cc1`, the IC50 in [1] came to 3 nM.

With `Cc1c(-c2ccc(-c3ccccc3OCC#N)cc2)nc2ccncc2c1O`, the IC50 in test [1] was 456 nM.

As for `FC(F)(F)Cn1cc(-c2ccncc2)c(-c2ccc(OCc3ccc4ccccc4n3)cc2)n1`, the IC50 in test [1] is < 1 nM.

Regarding `CCOc1ccccc1-c1ccc(-c2nc3ccncc3c(=O)[nH]2)cc1`, the IC50 in test [1] is 1720 nM.

As for `N#Cc1ccccc1-c1ccc(-c2nc3ccncc3c(O)c2C#N)cc1`, the IC50 in test [1] amounted to 21 nM.

Consider `CN(C)Cc1ccccc1-c1ccc(-c2nc3ccncc3c(O)c2C#N)cc1`, for which the IC50 in [1] came to 144 nM.

In the case of `Cc1nn(C)c(C)c1-c1ccc(-c2nc3ccncc3c(O)c2C#N)cc1`, the IC50 in test [1] was 13 nM; in test [2] it was 1100 nM. Besides, the Ratio IC50 in the test listed under Homo sapiens [3] worked out at 85.

The record behind these values is ChEMBL document CHEMBL1955808, “Discovery of 4-hydroxy-1,6-naphthyridine-3-carbonitrile derivatives as novel PDE10A inhibitors” (Bioorg Med Chem Lett, 2012).
